Data reported in PubChem BioAssay (NCI).
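Tested at 5 concentrations; 48 h exposure; 96-well plates; endpoints linearly interpolated, else capped at highest concentration. TGI: concentration producing complete growth inhibition.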

How the values were obtained:
Assay in all cases: inhibition of tumour cell growth, NCI panel, 48 h
HS 578T breast = tested on: HS 578T breast
BT-549 breast = tested on: BT-549 breast
TK-10 renal = tested on: TK-10 renal
EKVX NSCLC = tested on: EKVX NSCLC
MDA-N = tested on: MDA-N
MOLT-4 leukemia = tested on: MOLT-4 leukemia
OVCAR-8 ovarian = tested on: OVCAR-8 ovarian
NCI-H460 lung = tested on: NCI-H460 lung
MALME-3M melanoma = tested on: MALME-3M melanoma

Q: Which results are given for `N=C(N)c1ccc(N=Nc2c(O)c(C(=O)Nc3ccccc3)cc3ccccc23)cc1`?
A: TGI (HS 578T breast): > 85.5 µM; TGI (BT-549 breast): > 100 µM; TGI (TK-10 renal): > 68 µM; TGI (EKVX NSCLC): 41.9 µM; TGI (MDA-N): > 100 µM; TGI (MOLT-4 leukemia): 8.33 µM; TGI (OVCAR-8 ovarian): 34.5 µM; TGI (NCI-H460 lung): > 75.3 µM; TGI (MALME-3M melanoma): 97.3 µM

Q: What does the source list for `CC1(O)CC23CC(O)C4(O)C(CC(O)C4(C)C)C(C)(O)C2CCC1C3O` (stereo unspecified)?
A: TGI (HS 578T breast): > 100 µM; TGI (BT-549 breast): > 100 µM; TGI (TK-10 renal): > 100 µM; TGI (EKVX NSCLC): > 100 µM; TGI (MOLT-4 leukemia): > 100 µM; TGI (OVCAR-8 ovarian): > 100 µM; TGI (NCI-H460 lung): > 100 µM; TGI (MALME-3M melanoma): > 100 µM

Q: Which results are given for `CC(C)(C)C(=O)C(N)C(=O)C(C)(C)C`?
A: TGI (HS 578T breast): > 100 µM; TGI (BT-549 breast): > 100 µM; TGI (TK-10 renal): > 100 µM; TGI (MDA-N): > 100 µM; TGI (MOLT-4 leukemia): > 100 µM; TGI (OVCAR-8 ovarian): > 100 µM; TGI (NCI-H460 lung): > 100 µM; TGI (MALME-3M melanoma): > 100 µM

Q: For `Nc1ncnc2c1ncn2CCCNO`, which TGI (HS 578T breast) is on record?
A: > 100 µM

Q: What about the TGI (BT-549 breast) of the same compound?
A: > 100 µM

Q: And the TGI (TK-10 renal)?
A: > 100 µM

Q: And the TGI (EKVX NSCLC)?
A: > 100 µM

Q: What about the TGI (MDA-N) of the same compound?
A: > 100 µM

Q: What about the TGI (MOLT-4 leukemia) of the same compound?
A: > 100 µM

Q: And the TGI (OVCAR-8 ovarian)?
A: > 100 µM

Q: And the TGI (NCI-H460 lung)?
A: > 100 µM

Q: What about the TGI (MALME-3M melanoma) of the same compound?
A: > 100 µM

Q: With `Cc1cc(S(=O)(=O)NC2=NCc3c(F)cccc3N2)c(S)cc1Cl` as the compound, how does the TGI (HS 578T breast) read?
A: > 100 µM

Q: And the TGI (BT-549 breast)?
A: > 100 µM

Q: What about the TGI (TK-10 renal) of the same compound?
A: > 100 µM

Q: What about the TGI (EKVX NSCLC) of the same compound?
A: > 100 µM

Q: What about the TGI (MDA-N) of the same compound?
A: > 100 µM

Q: What about the TGI (MOLT-4 leukemia) of the same compound?
A: > 100 µM

Q: What about the TGI (OVCAR-8 ovarian) of the same compound?
A: > 100 µM

Q: And the TGI (NCI-H460 lung)?
A: > 100 µM

Q: And the TGI (MALME-3M melanoma)?
A: > 100 µM

Q: What does the source list for `O=C(CCCCCCCCC(=O)N1C(=O)CC(=O)N(c2ccc(Cl)cc2)C1=S)N1C(=O)CC(=O)N(c2ccc(Cl)cc2)C1=S`?
A: TGI (HS 578T breast): > 100 µM; TGI (BT-549 breast): > 100 µM; TGI (TK-10 renal): > 100 µM; TGI (EKVX NSCLC): > 100 µM; TGI (MDA-N): > 100 µM; TGI (MOLT-4 leukemia): 75.6 µM; TGI (OVCAR-8 ovarian): > 100 µM; TGI (NCI-H460 lung): > 100 µM; TGI (MALME-3M melanoma): > 100 µM

Q: What does the source list for `N#CC(c1cc(Cl)ncn1)c1nc2cc(C(F)(F)F)ccc2s1` (stereo unspecified)?
A: TGI (BT-549 breast): 9.5 µM; TGI (TK-10 renal): > 100 µM; TGI (EKVX NSCLC): 32.3 µM; TGI (MDA-N): 15.7 µM; TGI (MOLT-4 leukemia): > 100 µM; TGI (OVCAR-8 ovarian): 13.5 µM; TGI (NCI-H460 lung): > 100 µM; TGI (MALME-3M melanoma): 17.5 µM

Q: Which results are given for `N#Cc1cc2c(n(C3OC(CO)C(O)C(O)C3O)c1=S)CCC2` (stereo unspecified)?
A: TGI (HS 578T breast): > 100 µM; TGI (BT-549 breast): > 100 µM; TGI (TK-10 renal): > 100 µM; TGI (MDA-N): > 100 µM; TGI (MOLT-4 leukemia): > 100 µM; TGI (OVCAR-8 ovarian): > 100 µM; TGI (NCI-H460 lung): > 100 µM; TGI (MALME-3M melanoma): > 100 µM

Q: Which TGI (HS 578T breast) does the source give for `CCCCCCCCCCCCCCCCOC[C@H](COC(c1ccccc1)(c1ccccc1)c1ccccc1)O[P+](=S)OC` (stereo partly specified) here?
A: > 100 µM

Q: What about the TGI (BT-549 breast) of the same compound?
A: > 100 µM

Q: What about the TGI (TK-10 renal) of the same compound?
A: > 100 µM

Q: And the TGI (EKVX NSCLC)?
A: > 100 µM

Q: What about the TGI (MDA-N) of the same compound?
A: > 100 µM

Q: What about the TGI (MOLT-4 leukemia) of the same compound?
A: > 100 µM

Q: What about the TGI (OVCAR-8 ovarian) of the same compound?
A: > 100 µM

Q: What about the TGI (NCI-H460 lung) of the same compound?
A: > 100 µM

Q: What does the source list for `O=c1ccc(=O)c2c1c1[nH]c3ccccc3c1c1c(=O)c3ccccc3c(=O)c21`?
A: TGI (HS 578T breast): > 10 µM; TGI (TK-10 renal): > 10 µM; TGI (EKVX NSCLC): > 10 µM; TGI (MOLT-4 leukemia): 7.55 µM; TGI (OVCAR-8 ovarian): > 10 µM; TGI (NCI-H460 lung): > 10 µM; TGI (MALME-3M melanoma): > 10 µM

Q: Which results are given for `COc1ccc(C=C2C(C)=NN(c3cccc(Cl)c3)C23C(Cl)C(=O)N3c2nc3ccccc3s2)cc1` (stereo unspecified)?
A: TGI (HS 578T breast): 74.1 µM; TGI (TK-10 renal): > 100 µM; TGI (EKVX NSCLC): > 100 µM; TGI (MDA-N): 44.6 µM; TGI (MOLT-4 leukemia): 68 µM; TGI (OVCAR-8 ovarian): 42 µM; TGI (NCI-H460 lung): 66.6 µM

Q: Which results are given for `C[C@]12CC[C@H]3[C@@H](CCC4=C/C(=N/OCCN5CCCCC5)CC[C@@]43C)[C@@H]1CC[C@@H]2O`?
A: TGI (BT-549 breast): 36 µM; TGI (TK-10 renal): 35 µM; TGI (EKVX NSCLC): > 100 µM; TGI (MDA-N): 34.5 µM; TGI (MOLT-4 leukemia): 20.9 µM; TGI (OVCAR-8 ovarian): > 100 µM; TGI (MALME-3M melanoma): 33.7 µM

Q: `c1csc(-c2cc(-c3ccsc3)cs2)c1` was tested. Which TGI (HS 578T breast) did it give?
A: > 100 µM

Q: What about the TGI (BT-549 breast) of the same compound?
A: > 100 µM

Q: What about the TGI (TK-10 renal) of the same compound?
A: > 100 µM

Q: And the TGI (EKVX NSCLC)?
A: > 100 µM

Q: What about the TGI (MDA-N) of the same compound?
A: > 100 µM

Q: And the TGI (MOLT-4 leukemia)?
A: > 100 µM

Q: What about the TGI (NCI-H460 lung) of the same compound?
A: > 100 µM

Q: For `CCn1c(-c2cc3ccccc3cc2OC(C)=O)n[nH]c1=S`, which TGI (HS 578T breast) is on record?
A: 54.6 µM

Q: What about the TGI (TK-10 renal) of the same compound?
A: 75.6 µM

Q: What about the TGI (EKVX NSCLC) of the same compound?
A: 57.9 µM

Q: And the TGI (MOLT-4 leukemia)?
A: 51.3 µM

Q: What about the TGI (OVCAR-8 ovarian) of the same compound?
A: > 100 µM

Q: What about the TGI (NCI-H460 lung) of the same compound?
A: 69.8 µM

Q: For `CN(Cc1ccccc1)C(=S)S`, which TGI (HS 578T breast) is on record?
A: > 100 µM

Q: What about the TGI (BT-549 breast) of the same compound?
A: > 100 µM

Q: And the TGI (EKVX NSCLC)?
A: > 100 µM

Q: What about the TGI (MDA-N) of the same compound?
A: > 100 µM

Q: And the TGI (MOLT-4 leukemia)?
A: 84.6 µM

Q: What about the TGI (OVCAR-8 ovarian) of the same compound?
A: > 100 µM

Q: What about the TGI (NCI-H460 lung) of the same compound?
A: > 100 µM

Q: What about the TGI (MALME-3M melanoma) of the same compound?
A: > 100 µM

Q: Which TGI (HS 578T breast) does the source give for `COC1=C(OC)C(=O)C(Cc2c(-c3ccccc3)nc3sc(Cl)cn23)=C(C)C1=O` here?
A: 44.3 µM

Q: What about the TGI (BT-549 breast) of the same compound?
A: 30.2 µM

Q: What about the TGI (TK-10 renal) of the same compound?
A: 45 µM

Q: And the TGI (EKVX NSCLC)?
A: 41.6 µM

Q: And the TGI (MDA-N)?
A: 34.2 µM

Q: What about the TGI (OVCAR-8 ovarian) of the same compound?
A: 32.9 µM

Q: And the TGI (NCI-H460 lung)?
A: 40 µM

Q: What about the TGI (MALME-3M melanoma) of the same compound?
A: 33.2 µM

Q: With `Cc1cc(C)n(C(C)(C(=O)Cc2ccccc2)n2nc(C)cc2C)n1` as the compound, how does the TGI (HS 578T breast) read?
A: > 100 µM

Q: And the TGI (TK-10 renal)?
A: > 100 µM

Q: And the TGI (EKVX NSCLC)?
A: > 100 µM

Q: And the TGI (MDA-N)?
A: > 100 µM

Q: What about the TGI (MOLT-4 leukemia) of the same compound?
A: > 100 µM

Q: And the TGI (OVCAR-8 ovarian)?
A: > 100 µM

Q: And the TGI (NCI-H460 lung)?
A: > 100 µM

Q: What about the TGI (MALME-3M melanoma) of the same compound?
A: > 100 µM

Q: Which results are given for `CCOC(=O)/C(=C/c1cn(C(C)=O)c2ccccc12)P(=O)(OC)OC`?
A: TGI (HS 578T breast): > 100 µM; TGI (TK-10 renal): > 100 µM; TGI (MOLT-4 leukemia): 74.6 µM; TGI (OVCAR-8 ovarian): > 100 µM; TGI (NCI-H460 lung): 79.7 µM

Q: `FC(F)(Sc1ncccn1)c1nc2ccccc2o1` was tested. Which TGI (BT-549 breast) did it give?
A: > 100 µM

Q: And the TGI (TK-10 renal)?
A: > 100 µM

Q: What about the TGI (MDA-N) of the same compound?
A: > 100 µM

Q: And the TGI (MOLT-4 leukemia)?
A: > 100 µM

Q: And the TGI (OVCAR-8 ovarian)?
A: > 100 µM

Q: What about the TGI (NCI-H460 lung) of the same compound?
A: > 100 µM

Q: What about the TGI (MALME-3M melanoma) of the same compound?
A: > 100 µM
